According to PMC12516390 (ACS Medicinal Chemistry Letters, 2025):
Read-outs that look alike come from different tables or passages of the source.

Test system: SARS-CoV-2 (Omicron variant)
Experiment: microbe, parasite or virus in culture
Type: cell-based
[1] = Severe acute respiratory syndrome coronavirus 2, read-out: EC50 (μM) SARS-CoV-2 / VeroE6-GFP
[2] = Severe acute respiratory syndrome coronavirus 2, read-out: EC50 (μM) SARS-CoV-2/VeroE6-GFP
[3] = Severe acute respiratory syndrome coronavirus 2, Vero C1008, read-out: EC50 / activity in SARS-CoV-2 VeroE6 antiviral assay

Compound | EC50 [1] [µM] | EC50 [2] [µM] | EC50 [3] [µM]
COc1ccc(-c2ccc(C(=O)N[C@@H](CC(C)C)C(=O)N[C@H](C#N)C[C@@H]3CCNC3=O)c(C(F)(F)F)c2)cc1 [18m] | 2.56 | – | –
COc1ccc(-c2ccc(C(=O)N[C@@H](CC(C)C)C(=O)N[C@H](C#N)C[C@@H]3CCNC3=O)c(Cl)c2)cc1 [18r] | 1.57 | – | –
COc1ccc(-c2ccc(C(=O)N[C@@H](CC(C)C)C(=O)N[C@H](C#N)C[C@@H]3CCNC3=O)c(C)c2)cc1 [18k] | 5.16 | – | –
CC(C)C[C@H](NC(=O)c1ccc(-c2ccc3cnn(C)c3c2)cc1Cl)C(=O)N[C@H](C#N)C[C@@H]1CCNC1=O [18q] | 3.02 | – | –
CC(C)C[C@H](NC(=O)c1ccc(-c2ccc3c(cnn3C)c2)cc1F)C(=O)N[C@H](C#N)C[C@@H]1CCNC1=O [18c] | 6.34 | – | –
COc1cccc(-c2ccc(C(=O)N[C@@H](CC(C)C)C(=O)N[C@H](C#N)C[C@@H]3CCNC3=O)cc2)c1 [6e] | – | 12.5 ± 0.5 | –
CC(C)C[C@H](NC(=O)c1ccc(-c2cccc3nn(C)cc23)cc1)C(=O)N[C@H](C#N)C[C@@H]1CCNC1=O [6j] | – | 12.1 ± 0.5 | –
COc1ccc(-c2ccc(C(=O)N[C@@H](CC(C)C)C(=O)N[C@H](C#N)C[C@@H]3CCNC3=O)c(F)c2)cc1 [18b] | 5.67 | – | –
COc1cccc(-c2ccc(C(=O)N[C@@H](CC3CCCCC3)C(=O)N[C@H](C#N)C[C@@H]3CCNC3=O)c(Cl)c2)c1 [23d] | – | 8.64 ± 0.3 | –
CC(C)C[C@H](NC(=O)c1ccc(-c2cccc3nn(C)cc23)cc1Cl)C(=O)N[C@H](C#N)C[C@@H]1CCNC1=O [18p] | 11.8 | – | –
COc1cccc(-c2ccc(C(=O)N[C@@H](CC(C)C)C(=O)N[C@H](C#N)C[C@@H]3CCNC3=O)c(Cl)c2)c1 [18n] | 2.18 | 2.18 ± 0.2 | –
CC(C)C[C@H](NC(=O)c1ccc(-c2ccc3c(cnn3C)c2)cc1Cl)C(=O)N[C@H](C#N)C[C@@H]1CCNC1=O [18o] | 4.25 | – | –
COc1cccc(-c2ccc(C(=O)N3C[C@H]4[C@@H]([C@H]3C(=O)N[C@H](C#N)C[C@@H]3CCNC3=O)C4(C)C)c(Cl)c2)c1 [22f] | – | 0.331 ± 0.05 | 0.2 to 0.3
COc1ccc(-c2ccc(C(=O)N[C@@H](CC3CCCCC3)C(=O)N[C@H](C#N)C[C@@H]3CCNC3=O)c(Cl)c2)cc1 [23c] | – | 2.49 ± 0.2 | –
COc1ccc(-c2ccc(C(=O)N[C@@H](CC(C)C)C(=O)N[C@H](C#N)C[C@@H]3CCNC3=O)cc2)cc1OC [6f] | – | 11.9 ± 0.1 | –
CC(C)(C)[C@H](NC(=O)C(F)(F)F)C(=O)N1C[C@H]2[C@@H]([C@H]1C(=O)N[C@H](C#N)C[C@@H]1CCNC1=O)C2(C)C [nirmatrelvir, reference compound] | – | 0.101 ± 0.2 | 0.1 to 0.18
CC(C)C[C@H](NC(=O)c1ccc(-c2ccc3c(cnn3C)c2)cc1)C(=O)N[C@H](C#N)C[C@@H]1CCNC1=O [6l] | – | 11.1 ± 0.3 | –
COc1ccc(-c2ccc(C(=O)N3C[C@H]4[C@@H]([C@H]3C(=O)N[C@H](C#N)C[C@@H]3CCNC3=O)C4(C)C)c(Cl)c2)cc1 [22e] | – | 0.289 ± 0.05 | 0.2 to 0.3
CC(C)C[C@H](NC(=O)c1ccc(-c2cccc3nn(C)cc23)cc1F)C(=O)N[C@H](C#N)C[C@@H]1CCNC1=O [18a] | 4.18 | – | –
